“Also recorded” adds a separate entry of the source.
Experiments:
[1] = tested on: human colon carcinoma HT29 cell line; settings: supplemented with high concentrations of PLP and leucovorin; cited from earlier work
[2] = tested on: human colon carcinoma HCT116 cell line; settings: supplemented with high concentrations of PLP and leucovorin; cited from earlier work
[3] = tested on: murine leukemia L1210 cell line; settings: supplemented with high concentrations of PLP and leucovorin; cited from earlier work
[4] = tested on: solid tumors; assay: Phase I/IIa study ISO-CC-005 of arfolitixorin with 5-FU; format: in vivo, human; settings: between 8 and 16 weeks after initiating treatment
Method: Arfolitixorin has been in development for a number of years and has been studied in several clinical studies.
The completion of the study was announced in January 2020. In total, 105 patients were included in the study. […] These patients had been treated with the “doublet” regimens comprising 120 mg/m^2 arfolitixorin and 5-fluorouracil (5-FU) with either irinotecan or oxaliplatin (ARFIRI/ARFOX). Out of the 31 patients, 17 were treated with an ARFOX regimen.

[5] = [6R]-MTHF levels after arfolitixorin versus comparable leucovorin treatment; format: in vivo
Text: This dependency on cellular activation provides a hurdle for reaching sufficient levels of the active [6R]-MTHF. […] Secondly, the enzymatic activation is genetically regulated^16,18, and is therefore associated with variability between individuals and conditions. Arfolitoxirin is believed to be efficacious in a larger proportion of patients with less inter- and intra-individual variability. These differences may potentially turn out to be of significant importance for increased clinical efficacy in 5-FU based cancer treatment.

[6] = cited from earlier work
[7] = air, sunlight; cited from earlier work
[8] = Stability of the drug substance salt; format: physicochemical; settings: compared with very unstable [6R]-5,10-MTHF
Text: Arfolitixorin (former Modufolin®) is a folate-based biomodulator developed by applicant to improve the outcome of a range of antimetabolite treatments used within oncology. One of the therapeutic areas of specific interest included in the development program of arfolitixorin is as biomodulator of 5-fluorouracil (5-FU) activity in standard treatment regime for advanced, metastatic CRC, such as Stage IV. A stable lyophilizate formulation of the naturally occurring diastereoisomeric folate [6R]-5,10-MTHF has successfully been made from the drug substance arfolitixorin hemisulfate. […] As mentioned in the background section of the present application, [6R]-5,10-methylenetetrahydrofolate, abbreviated herein as [6R]-5,10-MTHF, needs to be metabolically formed when using the widely used folate-based drugs leucovorin and levoleucovorin.

[9] = kidneys; cited from earlier work
[10] = in vitro; cited from earlier work

O=c1[nH]cc(F)c(=O)[nH]1 [5-FU, 5-fluorouracil]
cytotoxic activity of 5-FU [1]: potentiated; also recorded: strongly potentiated
cytotoxic activity of 5-FU [2]: potentiated; also recorded: strongly potentiated
cytotoxic activity of 5-FU [3]: potentiated; also recorded: strongly potentiated

Nc1nc2c(c(=O)[nH]1)N1CN(c3ccc(C(=O)N[C@@H](CCC(=O)O)C(=O)O)cc3)C[C@H]1CN2 [Arfolitixorin, [6R]-5,10-methylenetetrahydrofolate]
progression of solid tumors [4]: No statistically significant progression
[6R]-MTHF levels relative to comparable treatment with leucovorin [5]: 3-4 times

Cc1ncc(CO)c(CO)c1O.Cl [Pyridoxine hydrochloride]
solubility in water [6]: One gram dissolves in 5 ml of water
stability [7]: stable in air and is slowly affected by sunlight

Nc1nc2c(c(=O)[nH]1)N1CN(c3ccc(C(=O)N[C@@H](CCC(=O)O)C(=O)O)cc3)C[C@H]1CN2.Nc1nc2c(c(=O)[nH]1)N1CN(c3ccc(C(=O)N[C@@H](CCC(=O)O)C(=O)O)cc3)C[C@H]1CN2.O=S(=O)(O)O [arfolitixorin hemisulfate]
stability of the salt [8]: unexpectedly stable salt

Nc1nc2c(c(=O)[nH]1)N(C=O)[C@H](CNc1ccc(C(=O)N[C@@H](CCC(=O)O)C(=O)O)cc1)CN2 [d-LV]
excretion [9]: slowly excreted by the kidneys

Nc1nc(=O)c2c([nH]1)NC[C@H](CNc1ccc(C(=O)N[C@@H](CCC(=O)O)C(=O)O)cc1)N2C=O [l-LV]
conversion to methyl-tetrahydrofolate [10]: rapidly converted to the biologically available methyl-tetrahydrofolate form
